# Like-named read-outs stand apart in the source and are kept apart here.
# Experiments:
# [1] = test system: intracellular forms of Leishmania (L. amazonensis amastigotes in BMDMs); settings: benchmark value; read-out: IC50 against intra-macrophage L. amazonensis; cited from earlier work
# [2] = test system: intracellular L. donovani; settings: cited from earlier work
# BMDMs = test: Toxicity to uninfected host BMDMs (AlamarBlue viability); type: cell-based, mouse; settings: even at 40-fold greater concentrations
# Description: (§1) FIG. 5. Dose response curves (IC50) of FX40 (∘) and the novel derivative compound FX104 (●). (A) BMDMs infected with L. amazonensis amastigotes were treated with various concentrations of the indicated compound for 72 h. BMDMs were lysed and released amastigotes were transformed to promastigotes for 48 h at 26° C. IC50 values were calculated by quantitation of % promastigote growth using AlamarBlue. (B) Dose response of uninfected BMDMs to compounds. (C) A table showing selectivity criteria for drug efficacy studies. (D) A table showing a summary of high throughput screening.
# (§2) To validate the […] efficacy of lead compounds against intracellular amastigotes in macrophages, primary bone marrow-derived macrophages (BMDMs) from mice were obtained and infected them with L. amazonensis amastigotes followed by incubation for 72 h with LHR1 antagonists or amphotericin B which kills intracellular Leishmania, as a positive control. Cells were then fixed and stained with DAPI which permits visualization of the host macrophage nuclei and parasite nuclei and kinetoplasts. Images collected with fluorescent microscopy were used to determine the ratio between total number of parasites and total number of host cells per treatment. Toxicity to host cells were measured by AlamarBlue viability assays. […] (Sch. 1 and FIG. 4A) The structure of FX104 is shown in Scheme 1.
# [3] = Drug-like parameters: Log P and solubility; type: physicochemical
# [4] = test system: intracellular forms of Leishmania (L. amazonensis amastigotes in BMDMs); test: Dose response in BMDMs infected with L. amazonensis amastigotes, released amastigotes transformed to promastigotes, AlamarBlue; type: cell-based
# Description: as §1, §2
# P-gp = P-gp (Homo sapiens, UniProt P08183); test: Drug-like parameters: P-gp efflux; type: in vitro ADME
# Chain of P-gp (P08183 whole entry): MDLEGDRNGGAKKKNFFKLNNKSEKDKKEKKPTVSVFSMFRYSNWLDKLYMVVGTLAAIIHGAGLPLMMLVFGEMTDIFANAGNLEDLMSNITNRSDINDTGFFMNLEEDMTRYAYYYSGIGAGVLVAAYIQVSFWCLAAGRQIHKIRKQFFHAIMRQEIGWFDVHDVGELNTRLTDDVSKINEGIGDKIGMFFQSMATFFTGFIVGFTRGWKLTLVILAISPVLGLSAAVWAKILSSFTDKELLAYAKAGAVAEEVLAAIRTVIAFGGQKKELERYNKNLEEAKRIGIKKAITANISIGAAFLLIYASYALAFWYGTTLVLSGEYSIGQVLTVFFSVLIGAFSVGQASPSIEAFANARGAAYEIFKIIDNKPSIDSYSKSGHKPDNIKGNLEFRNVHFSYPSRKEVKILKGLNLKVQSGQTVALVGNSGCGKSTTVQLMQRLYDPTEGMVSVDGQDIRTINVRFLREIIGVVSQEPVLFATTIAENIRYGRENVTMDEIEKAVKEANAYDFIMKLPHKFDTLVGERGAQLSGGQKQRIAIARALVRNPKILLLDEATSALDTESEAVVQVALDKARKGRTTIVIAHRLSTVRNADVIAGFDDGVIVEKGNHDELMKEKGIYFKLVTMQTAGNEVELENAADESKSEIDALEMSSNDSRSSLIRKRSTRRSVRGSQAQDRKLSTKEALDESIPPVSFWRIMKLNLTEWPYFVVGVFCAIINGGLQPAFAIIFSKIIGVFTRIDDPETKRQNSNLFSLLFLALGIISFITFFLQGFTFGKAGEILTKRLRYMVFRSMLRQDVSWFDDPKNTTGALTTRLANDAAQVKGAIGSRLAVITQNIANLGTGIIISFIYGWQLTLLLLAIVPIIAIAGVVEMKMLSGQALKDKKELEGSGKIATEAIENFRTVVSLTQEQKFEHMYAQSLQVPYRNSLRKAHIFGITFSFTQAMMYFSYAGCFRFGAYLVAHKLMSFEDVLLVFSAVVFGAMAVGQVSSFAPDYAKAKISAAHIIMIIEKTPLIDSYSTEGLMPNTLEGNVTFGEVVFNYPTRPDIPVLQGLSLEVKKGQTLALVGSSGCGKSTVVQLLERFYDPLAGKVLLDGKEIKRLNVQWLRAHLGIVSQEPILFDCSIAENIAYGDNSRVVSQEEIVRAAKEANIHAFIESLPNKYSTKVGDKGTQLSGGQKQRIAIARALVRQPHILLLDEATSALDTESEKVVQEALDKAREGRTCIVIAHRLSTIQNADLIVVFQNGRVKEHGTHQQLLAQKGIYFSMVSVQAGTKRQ
# [5] = Drug-like parameters: absorption and metabolic stability; type: in vitro ADME
solubility [3],P-gp efflux (P-gp),absorption [5],metabolic stability [5],Compound,IC50 [1] [nM],"IC50 ([2]; benchmark value, read-out: IC50 for intra-macrophage L. donovani) [nM]","efficacy ([2]; benchmark, intra-macrophage Leishmania) [%]",toxicity in BMDMs (BMDMs),"IC50 ([4]; BMDM, BMDMs infected with L. amazonensis amastigotes, 72 h, read-out: IC50 against intracellular forms of Leishmania) [nM]",fold more effective against intracellular forms of Leishmania than FX40 ([4]; FX104 versus FX40)
,,,,C[C@@H]1[C@H](O)[C@@H](C)/C=C/C=C/C=C/C=C/C=C/C=C/C=C/[C@H](O[C@@H]2O[C@H](C)[C@@H](O)[C@H](N)[C@@H]2O)C[C@@H]2O[C@](O)(C[C@@H](O)C[C@@H](O)[C@H](O)CC[C@@H](O)C[C@@H](O)CC(=O)O[C@H]1C)C[C@H](O)[C@H]2C(=O)O [Amphotericin B],50 to 100,20 to 60,> 90,,,
better,decreased,better,better,Cc1ccc([C@]2(NCCN(C)C)OC(=O)c3cccc(F)c32)cc1C [FX104],,,,little or no toxicity,250,over 30 fold
